Measurements taken from US10414811B2, “Protease-resistant lipidated GLP-1 analogs” (MEDIMMUNE LIMITED, priority 2015, dated 2019).
Read-outs that look alike come from different tables or passages of the source. Numbered stars: 1 amine (or outer) side, 2 acyl side, 3 side chain; on linkers, the order of the positions; unused ones are H or OH. Square brackets hold non-standard residues; d marks the D form. Side chains are listed from the residue outwards. Peptide text beside a SMILES is read from it. * marks the point of attachment. γGlu = O=C(O)[C@H](CCC(=O)[*:2])N[*:1]; Stearoyl = CCCCCCCCCCCCCCCCCC(=O)*; Palmitoyl = CCCCCCCCCCCCCCCC(=O)*; αMeF = C[C@](N)(Cc1ccccc1)C(=O)O; Myristoyl = CCCCCCCCCCCCCC(=O)*; αMeK = C[C@](N)(CCCCN)C(=O)O; Lauroyl = CCCCCCCCCCCC(=O)*; αMeS = C[C@](N)(CO)C(=O)O; AEEA = NCCOCCOCC(=O)O; Aib = CC(C)(N)C(=O)O

What was measured:
[1] = target: T1, human GLP-1 receptor (GLP-1R) (Homo sapiens, UniProt P43220); assay: cAMP assay, human GLP-1R cells; type: cell-based; conditions: bis-lipidated peptides
T1 construct: expressed in transfected cells
T1 sequence (P43220 24-463): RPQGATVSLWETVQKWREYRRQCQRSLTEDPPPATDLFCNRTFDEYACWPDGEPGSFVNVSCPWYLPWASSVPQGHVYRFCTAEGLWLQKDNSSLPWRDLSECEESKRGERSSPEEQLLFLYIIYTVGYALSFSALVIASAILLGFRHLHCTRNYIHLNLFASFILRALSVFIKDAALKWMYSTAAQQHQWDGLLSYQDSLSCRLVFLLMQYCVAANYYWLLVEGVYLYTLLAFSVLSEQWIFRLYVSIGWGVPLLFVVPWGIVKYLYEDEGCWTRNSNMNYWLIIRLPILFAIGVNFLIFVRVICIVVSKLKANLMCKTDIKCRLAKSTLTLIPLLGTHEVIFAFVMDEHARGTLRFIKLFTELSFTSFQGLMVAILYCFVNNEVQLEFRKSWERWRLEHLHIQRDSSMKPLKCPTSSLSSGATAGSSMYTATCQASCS
Procedure, shortened: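 Peptide-stimulated cAMP measured by two-step HTRF after a 30 min room-temperature incubation with receptor-expressing cells (hGLP-1R, hGIPR at 1×10^5 cells/ml; hGCGR at 2×10^5 cells/ml). Duplicate dilutions; EC50 from 4-parameter logistic fit of % Delta F.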

GLP-1R (INS1e assay) = target: T2, GLP-1R (INS1e assay) (Rattus norvegicus, UniProt P32301); assay: INS1e assay, cAMP activity at GLP-1R; type: cell-based; conditions: bis-lipidated peptides
T2 construct: endogenous in cells; host or cells: INS-1E cells
T2 sequence (P32301 22-463): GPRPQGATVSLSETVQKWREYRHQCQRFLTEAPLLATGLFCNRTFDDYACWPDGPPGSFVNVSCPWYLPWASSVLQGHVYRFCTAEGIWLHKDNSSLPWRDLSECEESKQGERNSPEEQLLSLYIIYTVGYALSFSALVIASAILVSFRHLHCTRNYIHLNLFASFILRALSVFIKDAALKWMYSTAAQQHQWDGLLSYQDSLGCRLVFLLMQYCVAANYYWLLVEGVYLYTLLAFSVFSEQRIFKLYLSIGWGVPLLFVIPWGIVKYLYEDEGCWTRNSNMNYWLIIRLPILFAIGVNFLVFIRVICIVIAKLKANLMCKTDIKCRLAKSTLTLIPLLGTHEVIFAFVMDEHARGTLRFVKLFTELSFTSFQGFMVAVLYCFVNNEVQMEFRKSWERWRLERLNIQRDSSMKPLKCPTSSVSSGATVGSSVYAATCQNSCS
Procedure: cAMP levels are measured using a commercially available cAMP dynamic 2 HTRF kit (Cisbio, Cat #62AM4PEJ), following the two step protocol as per manufacturer's recommendations. In brief; anti-cAMP cryptate (donor fluorophore) and cAMP-d2 (acceptor fluorophore) are made up separately by diluting each 1/20 in conjugate & lysis buffer provided in the kit. 5 μL anti-cAMP cryptate is added to wells of the assay plate, and 5 μL cAMP-d2 is added to wells except non-specific binding (NSB) wells, to which conjugate and lysis buffer are added. […] EC50 values of the synthetic peptides determined in cAMP assays are then determined.

[2] = replicate n2, read-out: Primary assay EC50 GLP-1R n2
[3] = replicate n1, read-out: INS1e assay EC50 GLP-1R n1
[4] = mean of n1 and n2, read-out: Primary assay EC50 Mean pM GLP-1R
[5] = replicate n1, read-out: Primary assay EC50 GLP-1R n1
[6] = mean of n1 and n2, read-out: INS1e assay EC50 Mean pM GLP-1R
[7] = replicate n2, read-out: INS1e assay EC50 GLP-1R n2

EC50 [1, 2] [pM]	EC50 (GLP-1R (INS1e assay); [3]) [pM]	EC50 [1, 4] [pM]	EC50 [1, 5] [pM]	EC50 (GLP-1R (INS1e assay); [6]) [pM]	EC50 (GLP-1R (INS1e assay); [7]) [pM]	SMILES
126	698	187	248	780	862	CCCCCCCCCCCCCCCCCC(=O)N[C@@H](CCC(=O)NCCOCCOCC(=O)NCCOCCOCC(=O)NCCCC[C@H](NC(=O)[C@H](C)NC(=O)[C@@H](NC(=O)[C@](C)(Cc1ccccc1)NC(=O)[C@H](CCC(=O)O)NC(=O)[C@](C)(CCCCN)NC(=O)[C@H](C)NC(=O)[C@H](C)NC(=O)[C@H](CCC(=O)O)NC(=O)CNC(=O)[C@H](CCC(=O)O)NC(=O)[C@H](CC(C)C)NC(=O)[C@H](CCCCNC(=O)COCCOCCNC(=O)COCCOCCNC(=O)CC[C@H](NC(=O)CCCCCCCCCCCCCCCCC)C(=O)O)NC(=O)[C@H](CO)NC(=O)[C@](C)(CO)NC(=O)[C@@H](NC(=O)[C@H](CC(=O)O)NC(=O)[C@H](CO)NC(=O)[C@@H](NC(=O)[C@](C)(Cc1ccccc1)NC(=O)[C@H](CO)NC(=O)CNC(=O)[C@H](CCC(=O)O)NC(=O)C(C)(C)NC(=O)[C@@H](N)Cc1c[nH]cn1)[C@@H](C)O)C(C)C)[C@@H](C)CC)C(=O)N[C@H](C(=O)N[C@H](C(=O)N[C@@H](CCC(=O)O)C(=O)NCC(=O)NCC(N)=O)C(C)C)C(C)C)C(=O)O [compound 410] (H-H[Aib]EGS[αMeF]TSDV[αMeS]SK([AEEA-AEEA-γGlu-Stearoyl])LEGEAA[αMeK]E[αMeF]IAK([AEEA-AEEA-γGlu-Stearoyl])VVEGG-NH2)
32.6	183	36.1	39.5	216	249	CCCCCCCCCCCCCCCC(=O)N[C@@H](CCC(=O)NCCOCCOCC(=O)NCCOCCOCC(=O)NCCCC[C@H](NC(=O)[C@H](C)NC(=O)[C@@H](NC(=O)[C@](C)(Cc1ccccc1)NC(=O)[C@H](CCC(=O)O)NC(=O)[C@](C)(CCCCN)NC(=O)[C@H](C)NC(=O)[C@H](C)NC(=O)[C@H](CCC(=O)O)NC(=O)CNC(=O)[C@H](CCC(=O)O)NC(=O)[C@H](CC(C)C)NC(=O)[C@H](CCCCNC(=O)COCCOCCNC(=O)COCCOCCNC(=O)CC[C@H](NC(=O)CCCCCCCCCCCCCCC)C(=O)O)NC(=O)[C@H](CO)NC(=O)[C@](C)(CO)NC(=O)[C@@H](NC(=O)[C@H](CC(=O)O)NC(=O)[C@H](CO)NC(=O)[C@@H](NC(=O)[C@](C)(Cc1ccccc1)NC(=O)[C@H](CO)NC(=O)CNC(=O)[C@H](CCC(=O)O)NC(=O)C(C)(C)NC(=O)[C@@H](N)Cc1c[nH]cn1)[C@@H](C)O)C(C)C)[C@@H](C)CC)C(=O)N[C@H](C(=O)N[C@H](C(=O)N[C@@H](CCC(=O)O)C(=O)NCC(=O)NCC(N)=O)C(C)C)C(C)C)C(=O)O [compound 409] (H-H[Aib]EGS[αMeF]TSDV[αMeS]SK([AEEA-AEEA-γGlu-Palmitoyl])LEGEAA[αMeK]E[αMeF]IAK([AEEA-AEEA-γGlu-Palmitoyl])VVEGG-NH2)

The next lines start with the compound.

SMILES	EC50 [1, 2] [pM]	EC50 (GLP-1R (INS1e assay); [3]) [pM]	EC50 [1, 4] [pM]	EC50 [1, 5] [pM]	EC50 (GLP-1R (INS1e assay); [6]) [pM]	EC50 (GLP-1R (INS1e assay); [7]) [pM]
CCCCCCCCCCCC(=O)N[C@@H](CCC(=O)NCCOCCOCC(=O)NCCOCCOCC(=O)NCCCC[C@H](NC(=O)[C@H](C)NC(=O)[C@@H](NC(=O)[C@](C)(Cc1ccccc1)NC(=O)[C@H](CCC(=O)O)NC(=O)[C@](C)(CCCCN)NC(=O)[C@H](C)NC(=O)[C@H](C)NC(=O)[C@H](CCC(=O)O)NC(=O)CNC(=O)[C@H](CCC(=O)O)NC(=O)[C@H](CC(C)C)NC(=O)[C@H](CCCCNC(=O)COCCOCCNC(=O)COCCOCCNC(=O)CC[C@H](NC(=O)CCCCCCCCCCC)C(=O)O)NC(=O)[C@H](CO)NC(=O)[C@](C)(CO)NC(=O)[C@@H](NC(=O)[C@H](CC(=O)O)NC(=O)[C@H](CO)NC(=O)[C@@H](NC(=O)[C@](C)(Cc1ccccc1)NC(=O)[C@H](CO)NC(=O)CNC(=O)[C@H](CCC(=O)O)NC(=O)C(C)(C)NC(=O)[C@@H](N)Cc1c[nH]cn1)[C@@H](C)O)C(C)C)[C@@H](C)CC)C(=O)N[C@H](C(=O)N[C@H](C(=O)N[C@@H](CCC(=O)O)C(=O)NCC(=O)NCC(N)=O)C(C)C)C(C)C)C(=O)O [compound 405] (H-H[Aib]EGS[αMeF]TSDV[αMeS]SK([AEEA-AEEA-γGlu-Lauroyl])LEGEAA[αMeK]E[αMeF]IAK([AEEA-AEEA-γGlu-Lauroyl])VVEGG-NH2)	3.66	110				
CCCCCCCCCCCCCC(=O)N[C@@H](CCC(=O)NCCOCCOCC(=O)NCCOCCOCC(=O)NCCCC[C@H](NC(=O)[C@H](C)NC(=O)[C@@H](NC(=O)[C@](C)(Cc1ccccc1)NC(=O)[C@H](CCC(=O)O)NC(=O)[C@](C)(CCCCN)NC(=O)[C@H](C)NC(=O)[C@H](C)NC(=O)[C@H](CCC(=O)O)NC(=O)CNC(=O)[C@H](CCC(=O)O)NC(=O)[C@H](CC(C)C)NC(=O)[C@H](CCCCNC(=O)COCCOCCNC(=O)COCCOCCNC(=O)CC[C@H](NC(=O)CCCCCCCCCCCCC)C(=O)O)NC(=O)[C@H](CO)NC(=O)[C@](C)(CO)NC(=O)[C@@H](NC(=O)[C@H](CC(=O)O)NC(=O)[C@H](CO)NC(=O)[C@@H](NC(=O)[C@](C)(Cc1ccccc1)NC(=O)[C@H](CO)NC(=O)CNC(=O)[C@H](CCC(=O)O)NC(=O)C(C)(C)NC(=O)[C@@H](N)Cc1c[nH]cn1)[C@@H](C)O)C(C)C)[C@@H](C)CC)C(=O)N[C@H](C(=O)N[C@H](C(=O)N[C@@H](CCC(=O)O)C(=O)NCC(=O)NCC(N)=O)C(C)C)C(C)C)C(=O)O [compound 408] (H-H[Aib]EGS[αMeF]TSDV[αMeS]SK([AEEA-AEEA-γGlu-Myristoyl])LEGEAA[αMeK]E[αMeF]IAK([AEEA-AEEA-γGlu-Myristoyl])VVEGG-NH2)	7.89	376	8.9	9.96	412	448
CCCCCCCCCCCC(=O)N[C@@H](CCC(=O)NCCOCCOCC(=O)NCCOCCOCC(=O)NCCCC[C@H](NC(=O)[C@H](C)NC(=O)[C@@H](NC(=O)[C@H](Cc1ccccc1)NC(=O)[C@H](CCC(=O)O)NC(=O)[C@](C)(CCCCN)NC(=O)[C@H](C)NC(=O)[C@H](C)NC(=O)[C@H](CCC(=O)O)NC(=O)CNC(=O)[C@H](CCC(=O)O)NC(=O)[C@H](CC(C)C)NC(=O)[C@H](Cc1ccc(O)cc1)NC(=O)[C@H](CO)NC(=O)[C@H](CO)NC(=O)[C@H](CCCCNC(=O)COCCOCCNC(=O)COCCOCCNC(=O)CC[C@H](NC(=O)CCCCCCCCCCC)C(=O)O)NC(=O)[C@H](CC(=O)O)NC(=O)[C@H](CO)NC(=O)[C@@H](NC(=O)[C@](C)(Cc1ccccc1)NC(=O)[C@H](CO)NC(=O)CNC(=O)[C@H](CCC(=O)O)NC(=O)C(C)(C)NC(=O)[C@@H](N)Cc1c[nH]cn1)[C@@H](C)O)[C@@H](C)CC)C(=O)N[C@H](C(=O)N[C@H](C(=O)N[C@@H](CCC(=O)O)C(=O)NCC(=O)NCC(N)=O)C(C)C)C(C)C)C(=O)O [compound 257] (H-H[Aib]EGS[αMeF]TSDK([AEEA-AEEA-γGlu-Lauroyl])SSYLEGEAA[αMeK]EFIAK([AEEA-AEEA-γGlu-Lauroyl])VVEGG-NH2)	12.4	812	8.4	4.36	577	342
